From ChEMBL document CHEMBL1201861, “Genomics of Drug Sensitity in Cancer screening data, Wellcome Trust Sanger Institute”

Assays:
Experiment in all cases: cells
[1] = system: U-251; format: functional, cell-based; conditions: Homo sapiens;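 also: growth inhibition of human U-251 cells, read out through a cell viability assay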
Description: SANGER: Inhibition of human U251 cell growth in a cell viability assay.

[2] = system: Detroit 562; format: functional, cell-based; conditions: Homo sapiens;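 also: growth inhibition of human Detroit 562 cells, read out by a cell viability assay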
Description: SANGER: Inhibition of human Detroit562 cell growth in a cell viability assay.

[3] = system: PA-1; format: functional, cell-based; conditions: Homo sapiens;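 also: IC50 for suppression of PA-1 cell proliferation, determined with a cell viability read-out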
Description: SANGER: Inhibition of human PA-1 cell growth in a cell viability assay.

[4] = system: PANC-03-27; format: functional, cell-based; conditions: Homo sapiens
Description: SANGER: Inhibition of human PANC-03-27 cell growth in a cell viability assay.

[5] = system: MKN-28; format: functional, cell-based; conditions: Homo sapiens;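 also: cell viability assay read-out, IC50 reflects suppression of growth of human MKN-28 cells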
Description: SANGER: Inhibition of human MKN28 cell growth in a cell viability assay.

[6] = system: HCC1954; format: functional, cell-based; conditions: Homo sapiens;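 also: growth inhibition of human HCC1954 cells, read out with a cell viability assay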
Description: SANGER: Inhibition of human HCC1954 cell growth in a cell viability assay.

[7] = system: VMRC-RCZ; format: functional, cell-based; conditions: Homo sapiens;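 also: growth inhibition measured with a cell viability assay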
Description: SANGER: Inhibition of human VMRC-RCZ cell growth in a cell viability assay.

[8] = system: KYSE-450; format: functional, cell-based; conditions: Homo sapiens;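 also: cell growth inhibition measured by a viability assay in human KYSE-450 cells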
Description: SANGER: Inhibition of human KYSE-450 cell growth in a cell viability assay.

[9] = system: CAL-62; format: functional, cell-based; conditions: Homo sapiens;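 also: growth inhibition of CAL-62 cells, read out with a cell viability assay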
Description: SANGER: Inhibition of human CAL-62 cell growth in a cell viability assay.

[10] = system: 5637; format: functional, cell-based; conditions: Homo sapiens
Description: SANGER: Inhibition of human 5637 cell growth in a cell viability assay.

[11] = system: BFTC-909; format: functional, cell-based; conditions: Homo sapiens
Description: SANGER: Inhibition of human BFTC-909 cell growth in a cell viability assay.

[12] = system: DMS-153; format: functional, cell-based, Homo sapiens; conditions: Homo sapiens, DMS-153
Description: SANGER: Inhibition of human DMS-153 cell growth in a cell viability assay.

[13] = system: NCI-H2009; format: functional, cell-based; conditions: Homo sapiens;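 also: cell viability assay measuring inhibition of NCI-H2009 cell growth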
Description: SANGER: Inhibition of human NCI-H2009 cell growth in a cell viability assay.

[14] = system: NCI-H187; format: functional, cell-based, Homo sapiens; conditions: Homo sapiens, NCI-H187;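 also: growth inhibition of NCI-H187 cells, read out as cell viability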
Description: SANGER: Inhibition of human NCI-H187 cell growth in a cell viability assay.

[15] = system: OVCAR-5; format: functional, cell-based; conditions: Homo sapiens;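 also: growth inhibition of human OVCAR-5 cells, read out with a cell viability assay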
Description: SANGER: Inhibition of human OVCAR-5 cell growth in a cell viability assay.

[16] = system: MIA PaCa-2; format: functional, cell-based; conditions: Homo sapiens;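 also: growth inhibition of MIA PaCa-2 cells, read out with a cell viability assay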
Description: SANGER: Inhibition of human MIA-PaCa-2 cell growth in a cell viability assay.

[17] = system: UACC-812; format: functional, cell-based; conditions: Homo sapiens
Description: SANGER: Inhibition of human UACC-812 cell growth in a cell viability assay.

[18] = system: NCI-H719; format: functional, cell-based, Homo sapiens; conditions: Homo sapiens, NCI-H719;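 also: growth inhibition of the cultured cell line, read out with a viability assay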
Description: SANGER: Inhibition of human NCI-H719 cell growth in a cell viability assay.

[19] = system: NCI-H1793; format: functional, cell-based; conditions: Homo sapiens;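 also: cell growth inhibition, read out by a cell viability assay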
Description: SANGER: Inhibition of human NCI-H1793 cell growth in a cell viability assay.

[20] = system: OAW-42; format: functional, cell-based; conditions: Homo sapiens;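 also: growth inhibition of OAW-42 cells, read out with a cell viability assay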
Description: SANGER: Inhibition of human OAW-42 cell growth in a cell viability assay.

[21] = system: SK-MM-2; format: functional, cell-based, Homo sapiens; conditions: Homo sapiens, SK-MM-2;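 also: growth inhibition of human SK-MM-2 cells, read out with a cell viability assay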
Description: SANGER: Inhibition of human SK-MM-2 cell growth in a cell viability assay.

[22] = system: SK-LU-1; format: functional, cell-based; conditions: Homo sapiens;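 also: cell viability assay measuring growth inhibition of human SK-LU-1 cells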
Description: SANGER: Inhibition of human SK-LU-1 cell growth in a cell viability assay.

[23] = system: NCI-H1993; format: functional, cell-based; conditions: Homo sapiens;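 also: growth inhibition of the cancer cell line, assessed with a cell viability assay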
Description: SANGER: Inhibition of human NCI-H1993 cell growth in a cell viability assay.

[24] = system: SW1783; format: functional, cell-based; conditions: Homo sapiens;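 also: cell growth inhibition measured with a viability assay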
Description: SANGER: Inhibition of human SW1783 cell growth in a cell viability assay.

[25] = system: NCI-H2228; format: functional, cell-based; conditions: Homo sapiens;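 also: growth inhibition of human NCI-H2228 cells, read out by a cell viability assay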
Description: SANGER: Inhibition of human NCI-H2228 cell growth in a cell viability assay.

[26] = system: KMOE-2; format: functional, cell-based, Homo sapiens; conditions: Homo sapiens, KMOE-2;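 also: growth inhibition of human KMOE-2 cells, read out with a cell viability assay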
Description: SANGER: Inhibition of human KMOE-2 cell growth in a cell viability assay.

[27] = system: CMK; format: functional, cell-based, Homo sapiens; conditions: Homo sapiens, CMK;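 also: growth inhibition of CMK cells, read out as cell viability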
Description: SANGER: Inhibition of human CMK cell growth in a cell viability assay.

[28] = system: Panc1005; format: functional, cell-based; conditions: Homo sapiens;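 also: growth inhibition of human PANC-10-05 cells, measured by a cell viability assay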
Description: SANGER: Inhibition of human PANC-10-05 cell growth in a cell viability assay.

[29] = system: NCI-H1563; format: functional, cell-based; conditions: Homo sapiens;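 also: growth inhibition of human NCI-H1563 cells, read out with a cell viability assay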
Description: SANGER: Inhibition of human NCI-H1563 cell growth in a cell viability assay.

[30] = system: NCI-H345; format: functional, cell-based, Homo sapiens; conditions: Homo sapiens, NCI-H345;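 also: growth inhibition of NCI-H345 cells measured with a cell viability assay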
Description: SANGER: Inhibition of human NCI-H345 cell growth in a cell viability assay.

[31] = system: ARH-77; format: functional, cell-based, Homo sapiens; conditions: Homo sapiens, ARH-77;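 also: growth inhibition of ARH-77 cells, read out by a cell viability assay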
Description: SANGER: Inhibition of human ARH-77 cell growth in a cell viability assay.

[32] = system: MONO-MAC-6; format: functional, cell-based, Homo sapiens; conditions: Homo sapiens, MONO-MAC-6;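 also: cell viability assay measuring growth inhibition of human MONO-MAC-6 cells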
Description: SANGER: Inhibition of human MONO-MAC-6 cell growth in a cell viability assay.

[33] = system: SW1573; format: functional, cell-based; conditions: Homo sapiens;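 also: growth inhibition of SW1573 cells, read out with a cell viability assay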
Description: SANGER: Inhibition of human SW1573 cell growth in a cell viability assay.

[34] = system: C32; format: functional, cell-based; conditions: Homo sapiens;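 also: cell viability assay, with IC50 reflecting inhibition of C32 cell growth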
Description: SANGER: Inhibition of human C32 cell growth in a cell viability assay.

[35] = system: KYSE-180; format: functional, cell-based; conditions: Homo sapiens;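 also: growth inhibition of KYSE-180 cells, read out with a cell viability assay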
Description: SANGER: Inhibition of human KYSE-180 cell growth in a cell viability assay.

[36] = system: ME-180; format: functional, cell-based; conditions: Homo sapiens;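 also: cell viability assay measuring growth inhibition of ME-180 cells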
Description: SANGER: Inhibition of human ME-180 cell growth in a cell viability assay.

[37] = system: BT-20; format: functional, cell-based; conditions: Homo sapiens;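 also: cell viability assay measuring suppression of growth in human BT-20 cells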
Description: SANGER: Inhibition of human BT-20 cell growth in a cell viability assay.

[38] = system: DK-MG; format: functional, cell-based; conditions: Homo sapiens;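 also: growth inhibition of DK-MG cells, read out with a cell viability assay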
Description: SANGER: Inhibition of human DK-MG cell growth in a cell viability assay.

[39] = system: RL95-2; format: functional, cell-based, Homo sapiens; conditions: Homo sapiens, RL95-2;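 also: RL95-2 growth inhibition determined through a cell viability readout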
Description: SANGER: Inhibition of human RL95-2 cell growth in a cell viability assay.

[40] = system: SW-620; format: functional, cell-based; conditions: Homo sapiens;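 also: growth inhibition of human SW-620 cells, measured by a cell viability assay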
Description: SANGER: Inhibition of human SW620 cell growth in a cell viability assay.

[41] = system: L-540; format: functional, cell-based, Homo sapiens; conditions: Homo sapiens, L-540;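 also: growth inhibition of the human L-540 cell line, read out with a viability assay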
Description: SANGER: Inhibition of human L-540 cell growth in a cell viability assay.

[42] = system: MCF7; format: functional, cell-based; conditions: Homo sapiens;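 also: growth inhibition of human MCF7 cells, read out with a cell viability assay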
Description: SANGER: Inhibition of human MCF7 cell growth in a cell viability assay.

[43] = system: RMG-I; format: functional, cell-based; conditions: Homo sapiens;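 also: growth inhibition of human RMG-I cells, read out with a cell viability assay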
Description: SANGER: Inhibition of human RMG-I cell growth in a cell viability assay.

[44] = system: SNU-C1; format: functional, cell-based, Homo sapiens; conditions: Homo sapiens, SNU-C1;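 also: growth inhibition of SNU-C1 human cells, read out by a cell viability assay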
Description: SANGER: Inhibition of human SNU-C1 cell growth in a cell viability assay.

[45] = system: HT-1376; format: functional, cell-based; conditions: Homo sapiens
Description: SANGER: Inhibition of human HT-1376 cell growth in a cell viability assay.

[46] = system: LP-1; format: functional, cell-based, Homo sapiens; conditions: Homo sapiens, LP-1;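 also: growth inhibition of human LP-1 cells, with the read-out taken from a cell viability assay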
Description: SANGER: Inhibition of human LP-1 cell growth in a cell viability assay.

[47] = system: MFH-ino; format: functional, cell-based, Homo sapiens; conditions: Homo sapiens, MFH-ino;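 also: growth inhibition of human MFH-ino cells, read out by a cell viability assay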
Description: SANGER: Inhibition of human MFH-ino cell growth in a cell viability assay.

[48] = system: Raji; format: functional, cell-based, Homo sapiens; conditions: Homo sapiens, Raji;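 also: cell viability assay measuring inhibition of Raji cell growth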
Description: SANGER: Inhibition of human Raji cell growth in a cell viability assay.

[49] = system: NCI-H520; format: functional, cell-based; conditions: Homo sapiens;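 also: growth inhibition of NCI-H520 cells, measured by a cell viability assay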
Description: SANGER: Inhibition of human NCI-H520 cell growth in a cell viability assay.

[50] = system: NCI-H460; format: functional, cell-based; conditions: Homo sapiens;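 also: cell viability assay scoring growth inhibition of human NCI-H460 cells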
Description: SANGER: Inhibition of human NCI-H460 cell growth in a cell viability assay.

[51] = system: DBTRG-05MG; format: functional, cell-based; conditions: Homo sapiens;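 also: cell viability assay measuring growth inhibition of human DBTRG-05MG cells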
Description: SANGER: Inhibition of human DBTRG-05MG cell growth in a cell viability assay.

[52] = system: CAL-12T; format: functional, cell-based; conditions: Homo sapiens;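 also: growth inhibition of human CAL-12T cells, read out with a cell viability assay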
Description: SANGER: Inhibition of human CAL-12T cell growth in a cell viability assay.

[53] = system: SNU-16; format: functional, cell-based, Homo sapiens; conditions: Homo sapiens, SNU-16;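 also: growth inhibition of human SNU-16 cells, determined with a cell viability readout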
Description: SANGER: Inhibition of human NCI-SNU-16 cell growth in a cell viability assay.

[54] = system: IST-SL2; format: functional, cell-based, Homo sapiens; conditions: Homo sapiens, IST-SL2;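 also: growth inhibition of human IST-SL2 cells, read out by a cell viability assay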
Description: SANGER: Inhibition of human IST-SL2 cell growth in a cell viability assay.

[55] = system: HT-1080; format: functional, cell-based; conditions: Homo sapiens
Description: SANGER: Inhibition of human HT-1080 cell growth in a cell viability assay.

[56] = system: KARPAS-422; format: functional, cell-based, Homo sapiens; conditions: Homo sapiens, KARPAS-422
Description: SANGER: Inhibition of human KARPAS-422 cell growth in a cell viability assay.

[57] = system: SK-MES-1; format: functional, cell-based; conditions: Homo sapiens;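 also: growth inhibition of human SK-MES-1 cells, read out with a cell viability assay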
Description: SANGER: Inhibition of human SK-MES-1 cell growth in a cell viability assay.

[58] = system: HCT-15; format: functional, cell-based; conditions: Homo sapiens;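 also: cell viability readout, IC50 reflecting suppression of HCT-15 cell growth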
Description: SANGER: Inhibition of human HCT-15 cell growth in a cell viability assay.

O=S(=O)(O)c1ccc2cc(/N=N/c3cc(S(=O)(=O)O)c4cccnc4c3O)ccc2c1
IC50 [1]: > 16000 nM | IC50 [2]: > 16000 nM | IC50 [3]: > 16000 nM | IC50 [4]: > 16000 nM | IC50 [5]: > 16000 nM | IC50 [6]: > 16000 nM | IC50 [7]: > 16000 nM | IC50 [8]: > 16000 nM | IC50 [9]: > 16000 nM | IC50 [10]: > 16000 nM | IC50 [11]: > 16000 nM | IC50 [12]: > 16000 nM | IC50 [13]: > 16000 nM | IC50 [14]: > 16000 nM | IC50 [15]: > 16000 nM | IC50 [16]: > 16000 nM | IC50 [17]: > 16000 nM | IC50 [18]: > 16000 nM | IC50 [19]: > 16000 nM | IC50 [20]: > 16000 nM | IC50 [21]: > 16000 nM | IC50 [22]: > 16000 nM | IC50 [23]: > 16000 nM | IC50 [24]: > 16000 nM | IC50 [25]: > 16000 nM | IC50 [26]: > 16000 nM | IC50 [27]: > 16000 nM | IC50 [28]: > 16000 nM | IC50 [29]: > 16000 nM | IC50 [30]: > 16000 nM | IC50 [31]: > 16000 nM | IC50 [32]: > 16000 nM | IC50 [33]: > 16000 nM | IC50 [34]: > 16000 nM | IC50 [35]: > 16000 nM | IC50 [36]: > 16000 nM | IC50 [37]: > 16000 nM | IC50 [38]: > 16000 nM | IC50 [39]: > 16000 nM | IC50 [40]: > 16000 nM | IC50 [41]: > 16000 nM | IC50 [42]: > 16000 nM | IC50 [43]: > 16000 nM | IC50 [44]: > 16000 nM | IC50 [45]: > 16000 nM | IC50 [46]: > 16000 nM | IC50 [47]: > 16000 nM | IC50 [48]: > 16000 nM | IC50 [49]: > 16000 nM | IC50 [50]: > 16000 nM | IC50 [51]: > 16000 nM | IC50 [52]: > 16000 nM | IC50 [53]: > 16000 nM | IC50 [54]: > 16000 nM | IC50 [55]: > 16000 nM | IC50 [56]: > 16000 nM | IC50 [57]: > 16000 nM | IC50 [58]: 15900 nM

Cc1ccc(C(=O)Nc2ccc(CN3CCN(C)CC3)c(C(F)(F)F)c2)cc1C#Cc1cnc2cccnn12 [PONATINIB]
IC50 [1]: > 512 nM | IC50 [2]: > 512 nM | IC50 [3]: > 512 nM | IC50 [4]: > 512 nM | IC50 [5]: > 512 nM | IC50 [6]: > 512 nM | IC50 [8]: 273 nM | IC50 [9]: > 512 nM | IC50 [10]: > 512 nM | IC50 [11]: > 512 nM | IC50 [12]: > 512 nM | IC50 [13]: > 512 nM | IC50 [14]: > 512 nM | IC50 [15]: > 512 nM | IC50 [16]: > 512 nM | IC50 [17]: > 512 nM | IC50 [18]: 78.9 nM | IC50 [19]: > 512 nM | IC50 [20]: > 512 nM | IC50 [21]: > 512 nM | IC50 [22]: 315 nM | IC50 [23]: > 512 nM | IC50 [24]: > 512 nM | IC50 [25]: > 512 nM | IC50 [26]: > 512 nM | IC50 [27]: > 512 nM | IC50 [28]: > 512 nM | IC50 [29]: > 512 nM | IC50 [30]: > 512 nM | IC50 [31]: > 512 nM | IC50 [32]: 8.37 nM | IC50 [33]: > 512 nM | IC50 [34]: > 512 nM | IC50 [35]: 269 nM | IC50 [36]: > 512 nM | IC50 [37]: > 512 nM | IC50 [38]: > 512 nM | IC50 [39]: > 512 nM | IC50 [40]: > 512 nM | IC50 [41]: > 512 nM | IC50 [42]: > 512 nM | IC50 [43]: > 512 nM | IC50 [44]: > 512 nM | IC50 [45]: > 512 nM | IC50 [46]: > 512 nM | IC50 [47]: > 512 nM | IC50 [48]: > 512 nM | IC50 [49]: 177 nM | IC50 [50]: > 512 nM | IC50 [51]: 381 nM | IC50 [52]: > 512 nM | IC50 [53]: > 512 nM | IC50 [54]: > 512 nM | IC50 [55]: > 512 nM | IC50 [56]: > 512 nM | IC50 [57]: > 512 nM | IC50 [58]: > 512 nM

COC(=O)[C@H](CCSC)NC(=O)c1ccc(NC[C@@H](N)CS)cc1-c1ccccc1
IC50 [1]: > 1020 nM | IC50 [2]: > 1020 nM | IC50 [3]: > 1020 nM | IC50 [4]: > 1020 nM | IC50 [5]: > 1020 nM | IC50 [6]: > 1020 nM | IC50 [7]: > 1020 nM | IC50 [8]: > 1020 nM | IC50 [9]: > 1020 nM | IC50 [10]: > 1020 nM | IC50 [11]: > 1020 nM | IC50 [12]: > 1020 nM | IC50 [13]: > 1020 nM | IC50 [14]: > 1020 nM | IC50 [15]: > 1020 nM | IC50 [16]: > 1020 nM | IC50 [17]: > 1020 nM | IC50 [18]: > 1020 nM | IC50 [19]: > 1020 nM | IC50 [20]: > 1020 nM | IC50 [21]: > 1020 nM | IC50 [22]: > 1020 nM | IC50 [23]: > 1020 nM | IC50 [24]: > 1020 nM | IC50 [25]: > 1020 nM | IC50 [26]: > 1020 nM | IC50 [27]: > 1020 nM | IC50 [28]: > 1020 nM | IC50 [29]: > 1020 nM | IC50 [30]: > 1020 nM | IC50 [31]: > 1020 nM | IC50 [32]: > 1020 nM | IC50 [33]: > 1020 nM | IC50 [34]: > 1020 nM | IC50 [35]: > 1020 nM | IC50 [36]: > 1020 nM | IC50 [37]: > 1020 nM | IC50 [38]: > 1020 nM | IC50 [39]: > 1020 nM | IC50 [40]: > 1020 nM | IC50 [41]: > 1020 nM | IC50 [42]: > 1020 nM | IC50 [43]: > 1020 nM | IC50 [44]: > 1020 nM | IC50 [45]: > 1020 nM | IC50 [46]: > 1020 nM | IC50 [47]: > 1020 nM | IC50 [48]: > 1020 nM | IC50 [49]: > 1020 nM | IC50 [50]: > 1020 nM | IC50 [51]: > 1020 nM | IC50 [52]: > 1020 nM | IC50 [53]: > 1020 nM | IC50 [54]: > 1020 nM | IC50 [55]: > 1020 nM | IC50 [56]: > 1020 nM | IC50 [57]: > 1020 nM | IC50 [58]: > 1020 nM
